PubChem BioAssay AID1918940 (Molecular Pharmacology Branch, DTP, NCI, 2023)
Values joined by “and” are separate entries in the source; they are usually repeats but may differ in a detail not shown here. Equal values may be shown once.

Test system: NCI-H211 complex spheroid viability
Assay: Anticancer human tumor NCI-H211 cell line growth inhibition [LSD1];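 further: luminescent viability read after seven days of drug exposure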;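 on viability, T/C: 100% = DMSO vehicle control viability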
Settings: for viability, T/C: stronger effect = lower value
From the text: Multicellular complex tumor spheroid response to LSD1 Inhibitor Iadademstat in combination with a variety of drugs and investigational agents in selected tumor cell lines
The current study was undertaken to assess response to LSD1 inhibitors in combination with standard-of-care drugs and investigational agents in solid tumor complex spheroid models as well as in the K-562 leukemia. Complex spheroids include a stromal component modeled by human endothelial cells (HUVEC) and fibroblasts modeled by human mesenchymal stem cells (MSCs). The concentration ranges selected for each drug and investigational agent were based upon clinically achievable concentrations if the clinical Cmax of the agent was known.
Compounds. The drugs and investigational agents used in this study are listed on Table 1. All of the agents used, including staurosporine (NSC755774) and gemcitabine (NSC613327), were obtained from the Developmental Therapeutics Program, NCI. FDA-approved anticancer drugs are available from the NCI at http://dtp.nci.nih.gov/branches/dscb/oncology_drugset_explanation.html. Drugs and investigational agents were >95% pure by proton nuclear magnetic resonance (NMR) and liquid chromatography/mass spectrometry (LC/MS). Stock solutions were prepared at 400x in DMSO, stored at -70 degrees C, and diluted in fresh medium prior to their use. The final concentration of DMSO in cell culture wells never exceeded 0.25% (v/v). The FDA-approved anticancer drug set is available from the Developmental Therapeutics Program at https://dtp.cancer.gov/organization/dscb/obtaining/available_plates.htm. All drugs and investigational agents were tested over a range starting from a high concentration at or near the clinical Cmax and decreasing in half-log increments. If the clinical Cmax for an agent had not been determined, the highest concentration tested was 10 microM.
Cell Lines. The patient-derived cancer cell (PDC) lines: 292921-168-R-J2-PDC, K24384-001-R-PDC, and 521955-158-R2-J5-PDC pancreatic carcinomas, 556581-035-R-J1 ovarian carcinoma, 324938-238-R-J1-PDC, 855422-203-R-J1-PDC and 883617-216-R-J1-PDC urothelial bladder carcinomas, 743489-274-T-PDC renal cell carcinoma, 138582-R-J1 Merkel cell tumor, K60290-347-R-J1 and K57222-313-R-J1-PDC glioblastomas, 653999-131-R-J2-PDC, LG0703-F948-PDC, and 349418-098-R-PDC non-small cell lung carcinomas, 885512-296-R-J2-PDC, 171881-019-R-J1-PDC breast carcinomas and 186277-243-T-J2-PDC and 233499-124-R-J2-PDC colon carcinomas were obtained from the NCI Patient-Derived Models Repository (PDMR, https://pdmr.cancer.gov). The established cell lines NCI/ADR-RES (RRID:CVCL_14520 and OVCAR-5 (RRID:CVCL_1628) ovarian carcinomas, 786-O (RRID:CVCL_1051) and A498 (RRID:CVCL_A498) renal cell carcinoma, NCI-H211 (ATCC, cat. CRL-5824; RRID:CVCL_1529), NCI-H196 (ATCC, cat. CRL-5823, RRID:CVCL_1509), SW 1271 (ATCC, cat. CRL-2177, RRID:CVCL_1716) and NCI-H1876 (ATCC, cat. CRL-5902, RRID:CVCL_1503) small cell lung carcinomas, MDA-MB-231 (RRID:CVCL_0062) and MDA-MB-468 (RRID:CVCL_0419)breast carcinomas (10-12). Pooled donor human umbilical vein endothelial cells (HUVEC, Lonza, cat. CC-2519) and human mesenchymal stem cells (hMSC, Lonza, cat. PT-2501) were purchased from Lonza (Walkersville, MD).
Cell Culture. All cells were maintained in an incubator at 37 degrees C and 5% CO2 with 95% humidity. The PDC lines were cultured according to standard operating procedures established by the NCI PDMR (https://pdmr.cancer.gov). Briefly all PDCs were thawed and cultured in Matrigel-coated flasks prepared with a working solution of 1X Ham's F-12 nutrient mix, without supplementation (Invitrogen, Waltham, MA, cat. 11765054), 100 U/mL penicillin-streptomycin (Invitrogen, cat. 15140122), and 2.5% Matrigel (Corning Inc., Corning, NY, cat. 354248) for the first three passages. […]

[1] = curve of first compound, second compound 0.1 µM
[2] = curve of first compound, second compound 0.316 µM
[3] = curve of first compound, second compound 1 µM
[4] = curve of first compound, second compound 3.16 µM
[5] = curve of first compound, second compound 10 µM
[6] = second compound 0.1 µM, first compound 0.0316 µM
[7] = second compound 0.1 µM, first compound 0.1 µM
[8] = second compound 0.1 µM, first compound 0.316 µM
[9] = second compound 0.1 µM, first compound 1 µM
[10] = second compound 0.1 µM, first compound 3.16 µM
[11] = second compound 0.1 µM, first compound 10 µM
[12] = second compound 0.316 µM, first compound 0.0316 µM
[13] = second compound 0.316 µM, first compound 0.1 µM
[14] = second compound 0.316 µM, first compound 0.316 µM
[15] = second compound 0.316 µM, first compound 1 µM
[16] = second compound 0.316 µM, first compound 3.16 µM
[17] = second compound 0.316 µM, first compound 10 µM
[18] = second compound 1 µM, first compound 0.0316 µM
[19] = second compound 1 µM, first compound 0.1 µM
[20] = second compound 1 µM, first compound 0.316 µM
[21] = second compound 1 µM, first compound 1 µM
[22] = second compound 1 µM, first compound 3.16 µM
[23] = second compound 1 µM, first compound 10 µM
[24] = second compound 3.16 µM, first compound 0.0316 µM
[25] = second compound 3.16 µM, first compound 0.1 µM
[26] = second compound 3.16 µM, first compound 0.316 µM
[27] = second compound 3.16 µM, first compound 1 µM
[28] = second compound 3.16 µM, first compound 3.16 µM
[29] = second compound 3.16 µM, first compound 10 µM
[30] = second compound 10 µM, first compound 0.0316 µM
[31] = second compound 10 µM, first compound 0.1 µM
[32] = second compound 10 µM, first compound 0.316 µM
[33] = second compound 10 µM, first compound 1 µM
[34] = second compound 10 µM, first compound 3.16 µM
[35] = second compound 10 µM, first compound 10 µM

SMILES	IC50 [1] [µM]	IC50 [2] [µM]	IC50 [3] [µM]	IC50 [4] [µM]	IC50 [5] [µM]	viability, T/C [6] [%]	viability, T/C [7] [%]	viability, T/C [8] [%]	viability, T/C [9] [%]	viability, T/C [12] [%]	viability, T/C [13] [%]	viability, T/C [14] [%]	viability, T/C [15] [%]	viability, T/C [18] [%]	viability, T/C [19] [%]	viability, T/C [20] [%]	viability, T/C [21] [%]	viability, T/C [24] [%]	viability, T/C [25] [%]	viability, T/C [26] [%]	other results
COc1ccc([C@@H](O)c2cc(-c3ncnc4cc(N5CCOCC5)ccc34)c(F)cc2Cl)nn1 + NC1CCC(NC2CC2c2ccccc2)CC1	3.7	3.37	3.48	3.7	< 0.0316	72.7	63	69.5	74.2	66.9	69.7	73.2	71.2	69.2	63.6	65.3	81.7	73.6	63.3	64	viability, T/C [10]: 55.8%; viability, T/C [11]: 13.7%; viability, T/C [16]: 52.1%; viability, T/C [17]: 12.6%; viability, T/C [22]: 53.4%; viability, T/C [23]: 11.3%; viability, T/C [27]: 81.5%; viability, T/C [28]: 56.1%; viability, T/C [29]: 11.1%; viability, T/C [30]: 36.9%; viability, T/C [31]: 36.7%; viability, T/C [32]: 36.8%; viability, T/C [33]: 54.3%; viability, T/C [34]: 49%; viability, T/C [35]: 8.03%
CC(C)CC(NC(=O)CNC(=O)c1cc(Cl)ccc1Cl)B1OC(=O)CC(CC(=O)O)(C(=O)O)O1 (configuration not stated)																					viability, T/C (compound 0.000316 µM): 125% and 105%; viability, T/C (compound 0.001 µM): 114% and 102%; viability, T/C (compound 0.00316 µM): 112% and 115%; viability, T/C (compound 0.01 µM): 65.5% and 41.5%; viability, T/C (compound 0.0316 µM): 16% and 14%; viability, T/C (compound 0.1 µM): 3.55% and 4.35%; IC50 (curve of compound): 0.0144 µM and 0.00863 µM
O=C(c1cc(Cc2n[nH]c(=O)c3ccccc23)ccc1F)N1CCN(C(=O)C2CC2)CC1 + NC1CCC(NC2CC2c2ccccc2)CC1	< 0.0316	< 0.0316	< 0.0316	< 0.0316	< 0.0316	41.8	26.4	6.09	2.71	44.4	27.7	6.03	2.23	41.1	27.1	5.68	2.69	35.5	21.8	4.95	viability, T/C [10]: 2.42%; viability, T/C [11]: 2.07%; viability, T/C [16]: 2.6%; viability, T/C [17]: 2.2%; viability, T/C [22]: 3.18%; viability, T/C [23]: 2.72%; viability, T/C [27]: 1.97%; viability, T/C [28]: 2.43%; viability, T/C [29]: 2.46%; viability, T/C [30]: 18.2%; viability, T/C [31]: 11.2%; viability, T/C [32]: 1.78%; viability, T/C [33]: 1.3%; viability, T/C [34]: 1.25%; viability, T/C [35]: 1.37%
COc1cc(Nc2ncc3c(n2)-c2ccc(Cl)cc2C(c2c(F)cccc2OC)=NC3)ccc1C(=O)O + NC1CCC(NC2CC2c2ccccc2)CC1	< 0.00316	< 0.00316	< 0.00316	< 0.00316	< 0.00316	2.59	2.93	2.92	2.47	3.27	2.5	2.51	2.35	3.16	6.76	2.71	1.94	2.4	2.55	1.47	viability, T/C (second compound 0.1 µM, first compound 0.00316 µM): 34%; viability, T/C (second compound 0.1 µM, first compound 0.01 µM): 8.09%; viability, T/C (second compound 0.316 µM, first compound 0.00316 µM): 34.6%; viability, T/C (second compound 0.316 µM, first compound 0.01 µM): 4.21%; viability, T/C (second compound 1 µM, first compound 0.00316 µM): 47.9%; viability, T/C (second compound 1 µM, first compound 0.01 µM): 5.71%; viability, T/C (second compound 3.16 µM, first compound 0.00316 µM): 31.8%; viability, T/C (second compound 3.16 µM, first compound 0.01 µM): 4.91%; viability, T/C [27]: 2.19%; viability, T/C (second compound 10 µM, first compound 0.00316 µM): 22.4%; viability, T/C (second compound 10 µM, first compound 0.01 µM): 2.05%; viability, T/C [30]: 1.29%; viability, T/C [31]: 1.19%; viability, T/C [32]: 1.28%; viability, T/C [33]: 1.12%
